Results from patent US11174223B2, “Compositions, methods, and systems for the synthesis and use of imaging agents” (Lantheus Medical Imaging, Inc., priority 2010, dated 2021).

Legend:
[1] = Regional myocardial radioactivity concentration by dynamic PET in normal subjects; format: in vivo, human
Protocol: A human study was performed that determined the quantification of normal pattern of regional myocardial radioactivity concentration of imaging agent-1.
Normal subjects (n=6) were injected with ˜220 MBq of imaging agent-1 intravenously, and dynamic PET images were acquired over 80 min without patient movement. Attenuation corrected images were re-oriented into standard cardiac specific axes, and the maximal regional myocardial uptake was quantified on a sector-by-sector basis using WLCQ software. […] Activity was expressed as Bq/ml.

[2] = target: T1, norepinephrine transporter (NET) (Homo sapiens, UniProt P23975); experiment: Uptake and uptake kinetics in SH-SY5Y human neuroblastoma cells; format: cell-based
T1 construct: endogenous in cells; host or cells: SH-SY5Y
Protocol: (§1) Imaging agent-1 was designed as a substrate for the norepinephrine transporter (NET) to image the cardiac sympathetic nervous system. […] These values were similar to that of MIBG (2.12±0.26 μM and 4.76±0.78 pmol/min/million cells). In animals, tissue biodistribution of imaging agent-1 was assessed by tissue sampling at 15- and 60-minute following administration. Heart uptake was 2.36±0.16 and 2.17±0.12% injected dose per g tissue (% ID/g) in rats and 0.25±0.03 and 0.28±0.03% ID/g in rabbits. In rabbits, desipramine (1 mg/kg) inhibited heart uptake of imaging agent-1 by 68% and ^123I-MIBG uptake by 55% at 1 hour post dose.

[3] = Tissue biodistribution by tissue sampling in rabbits; format: in vivo
Protocol: as §1

[4] = target: T2, norepinephrine transporter (NET), uptake 1 (Oryctolagus cuniculus, UniProt G1TDF9); experiment: Heart uptake in rabbits after uptake 1 blockade (desipramine) or 6-hydroxydopamine sympathetic denervation; format: in vivo; conditions: rabbits
T2 construct: from tissue; host or cells: rabbit heart, in vivo
Protocol: as §1
(§2) Desipramine, a selective uptake 1 inhibitor, was used to block cardiac uptake 1 in rats (10 mg/kg, ip), rabbits (1 mg/kg iv), and NHPs (0.5 mg/kg, iv). 6-hydroxydopamine, a neurotoxin, was injected to induce sympathetic denervation in rats (100 mg/kg ip for 7 days) and rabbits (25 mg/kg iv on day 1, 2, 7, and 8). Imaging agent-1 heart uptake in comparison with MIBG was assessed by tissue sampling at 60 minutes post imaging agent injection. Imaging was also performed with (2-tert-butyl-4-chloro-5-[4-(2-[^18F]fluoroethoxymethyl)-benzyloxy]-2H-pyridazin-3-1.

[5] = tested on: norepinephrine transporter (NET), uptake 1; experiment: Heart uptake in rats after uptake 1 blockade (desipramine) or 6-hydroxydopamine sympathetic denervation; format: in vivo; conditions: 60 minutes post injection
Protocol: as §2

[6] = tested on: norepinephrine transporter (NET), uptake 1; experiment: Cardiac imaging in NHPs pretreated with desipramine; format: in vivo, nonhuman primates (NHP); conditions: desipramine 0.5 mg/kg
Protocol: as §1, §2

NET [7] = target: T3, NET (Rattus norvegicus, UniProt Q63380); experiment: Cell uptake selectivity with and without desipramine in PC-12 cells; format: cell-based
T3 construct: endogenous in cells; host or cells: PC-12
Protocol: (§3) The affinity (Ki) was determined in a competition binding assay by incubating ^19F-imaging agent-1, a cold analog of imaging agent-1, or NE with ^3H-desmethylimipramine in cell membrane overexpressing human NET. The uptake selectivity was assessed by measuring imaging agent-1 or ^3H-NE cell uptake with and without pretreatment of desipramine, a selective NET inhibitor, in SK—N—SH (human neuroblastoma) and PC-12 (rat pheochromocytoma) cells. In SK—NSH cells, the uptake kinetics (Km and Vmax) were evaluated by measuring NET mediated uptake of imaging agent-1 or NE at various concentrations. Imaging agent-1 cardiac image quality was evaluated by PET imaging (˜1.5 mCi, i.v.) in rabbits in the presence and absence of desipramine (1 mg/kg).

[8] = Cardiac PET imaging in rabbit model of regional cardiac sympathetic denervation (RCSD) and re-innervation; format: in vivo, rabbits
Protocol: Rabbit models of RCSD were developed by applying phenol directly on the surface of the left ventricular wall during a sternotomy. Two and twelve weeks following the procedure, imaging agent-1 cardiac PET imaging (˜1.5 mCi, iv) were performed in these rabbits. The myocardial area with radioactivity ≥50% maximum was quantified as innervated region for comparison. To evaluate susceptibility of arrhythmia in rabbits, dofetilide (10 and 40 μg/kg iv, a delayed IKr inhibitor) induced changes were assessed by measuring ECG including heart rate (HR), QTc interval (corrected by Fridericia method), and frequency of arrhythmia.

NET [9] = target: T4, NET (Homo sapiens, UniProt P23975); experiment: Cell uptake selectivity with and without desipramine in SK-N-SH cells; format: cell-based; set-up: endogenous in cells; host or cells: SK-N-SH
Protocol: as §3

NET [10] = target: T4, NET; experiment: NET mediated uptake kinetics in SK-N-SH cells; format: cell-based; set-up: endogenous in cells; host or cells: SK-N-SH
Protocol: as §3

NET [11] = target: T4, NET; experiment: Effect of heart failure medications on NET mediated imaging agent-1 uptake in SK-N-SH cells; format: cell-based; set-up: endogenous in cells; host or cells: SK-N-SH; conditions: 1 million cells, 60 minutes

T4 sequence (P23975 whole entry): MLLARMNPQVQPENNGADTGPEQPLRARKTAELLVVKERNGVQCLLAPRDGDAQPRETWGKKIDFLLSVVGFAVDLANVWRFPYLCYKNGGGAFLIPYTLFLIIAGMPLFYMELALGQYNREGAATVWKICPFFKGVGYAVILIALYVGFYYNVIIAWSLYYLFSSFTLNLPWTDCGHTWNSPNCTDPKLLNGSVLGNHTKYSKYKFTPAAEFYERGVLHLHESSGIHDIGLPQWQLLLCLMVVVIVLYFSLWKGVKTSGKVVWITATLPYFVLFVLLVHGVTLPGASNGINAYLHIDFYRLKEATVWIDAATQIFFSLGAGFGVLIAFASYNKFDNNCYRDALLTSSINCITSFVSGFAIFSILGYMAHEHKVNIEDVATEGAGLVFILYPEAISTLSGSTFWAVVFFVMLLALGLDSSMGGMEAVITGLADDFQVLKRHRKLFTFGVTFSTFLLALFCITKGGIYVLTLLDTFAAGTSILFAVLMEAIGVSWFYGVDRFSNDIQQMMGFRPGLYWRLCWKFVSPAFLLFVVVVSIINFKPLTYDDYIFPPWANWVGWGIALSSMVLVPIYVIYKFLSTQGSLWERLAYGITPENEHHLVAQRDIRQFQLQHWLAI
T1 sequence (P23975 whole entry): as above
T2 sequence (G1TDF9 1-617): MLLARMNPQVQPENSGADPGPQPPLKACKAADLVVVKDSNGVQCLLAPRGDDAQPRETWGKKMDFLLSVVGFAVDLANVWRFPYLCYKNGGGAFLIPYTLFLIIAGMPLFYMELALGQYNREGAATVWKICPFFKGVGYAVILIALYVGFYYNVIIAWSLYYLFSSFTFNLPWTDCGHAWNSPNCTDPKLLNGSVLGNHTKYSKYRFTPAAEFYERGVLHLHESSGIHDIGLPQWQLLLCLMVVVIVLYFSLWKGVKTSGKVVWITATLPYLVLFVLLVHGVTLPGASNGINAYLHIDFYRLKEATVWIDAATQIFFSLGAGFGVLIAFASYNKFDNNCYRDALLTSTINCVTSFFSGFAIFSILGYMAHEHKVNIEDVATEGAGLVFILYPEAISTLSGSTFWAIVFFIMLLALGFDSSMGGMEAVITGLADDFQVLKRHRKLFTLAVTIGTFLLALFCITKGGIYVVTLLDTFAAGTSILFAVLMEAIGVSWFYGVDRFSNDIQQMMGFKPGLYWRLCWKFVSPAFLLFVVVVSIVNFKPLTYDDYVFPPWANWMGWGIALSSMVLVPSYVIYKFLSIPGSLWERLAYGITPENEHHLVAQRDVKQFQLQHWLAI
T3 sequence (Q63380 1-617): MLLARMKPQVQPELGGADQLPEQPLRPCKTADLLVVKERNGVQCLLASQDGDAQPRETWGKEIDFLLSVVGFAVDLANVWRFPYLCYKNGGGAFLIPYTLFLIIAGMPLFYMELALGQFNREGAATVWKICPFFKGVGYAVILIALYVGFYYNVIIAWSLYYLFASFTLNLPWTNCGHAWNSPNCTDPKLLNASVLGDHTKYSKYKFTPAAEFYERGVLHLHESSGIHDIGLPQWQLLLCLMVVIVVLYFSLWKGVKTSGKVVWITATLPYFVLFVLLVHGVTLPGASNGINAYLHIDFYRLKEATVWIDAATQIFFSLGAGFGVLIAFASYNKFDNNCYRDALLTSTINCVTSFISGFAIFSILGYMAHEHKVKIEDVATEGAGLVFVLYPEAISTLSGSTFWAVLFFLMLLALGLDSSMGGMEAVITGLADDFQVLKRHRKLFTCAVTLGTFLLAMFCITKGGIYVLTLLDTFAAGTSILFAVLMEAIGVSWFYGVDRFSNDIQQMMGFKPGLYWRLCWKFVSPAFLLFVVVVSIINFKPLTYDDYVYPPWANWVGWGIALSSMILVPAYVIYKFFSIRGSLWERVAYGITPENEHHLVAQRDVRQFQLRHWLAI

## N=C(N)NCc1ccc(OCCC[18F])c(Br)c1 [imaging agent-1, 1-{3-Bromo-4-[3-[^18F]fluoropropoxy]benzyl}guanidine]
[1]; normal subjects n=6, ~220 MBq iv
  Clearance of radiotracer from blood: cleared quickly from the blood
[1]; post injection
  Time at which myocardial activity reached a plateau: ~60 min
  Time of peak of regional and global myocardial activity: ≤ 10 min
[1]; ~60 min post injection
  Myocardial uptake, Apical short axis slice: 11678±2148 Bq/ml
  Myocardial uptake, Base short axis slice: 11284±2844 Bq/ml
  Myocardial uptake, Mid short axis slice: 11898±2047 Bq/ml
  Regional myocardial uptake, Anterior sector: 11592±2474 Bq/ml
  Regional myocardial uptake, Inferior sector: 11818±1991 Bq/ml
  Regional myocardial uptake, Lateral sector: 11424±2439 Bq/ml
  Regional myocardial uptake, Septal sector: 11647±2829 Bq/ml
[2]; SH-SY5Y cells
  Vmax (uptake kinetics): 5.18±1.23 pmol/min/million cells
[2]; SH-SY5Y human neuroblastoma cell line
  Uptake in SH-SY5Y cells in presence of desipramine, a selective NET inhibitor: inhibited by desipramine
[3]; 15-minute following administration
  Heart uptake: 0.25±0.03 % ID/g
[3]; 60-minute following administration
  Heart uptake: 0.28±0.03 % ID/g
[4]; 6-OHDA i.v.
  Decrease in heart uptake after sympathetic denervation with 6-hydroxydopamine: 79%
[4]; desipramine 1 mg/kg, 1 hour post dose
  Inhibition of heart uptake by desipramine (uptake 1 blockade): 68%
[5]; rat, heart, other: injection, rats, control group of denervation
  tissue uptake at 60 min: 2.58 ± 0.76 %ID/g
[5]; rats, control of uptake 1 blockade
  Heart uptake: 1.47±0.22 % ID/g
[5]; rats, uptake 1 blocked (desipramine 10 mg/kg ip)
  Heart uptake: 1.41±0.07 % ID/g
[5]; sympathetic denervated rats (6-hydroxydopamine)
  Heart uptake: 2.18±0.39 % ID/g
[6]
  Decrease of radioactivity in the heart by desipramine pretreatment (cardiac imaging): 68%
NET [7]
  Inhibition of cell uptake by blockade of NET (desipramine): 66±7%
[8]; phenol RCSD rabbits, 2 weeks post surgery
  Innervated region (myocardial area with radioactivity ≥50% maximum): 12245±905 voxels
[8]; phenol RCSD rabbits, 12 weeks
  Innervated region (myocardial area with radioactivity ≥50% maximum): 16812±503 voxels
[8]; sham-denervated rabbits
  Innervated region (myocardial area with radioactivity ≥50% maximum): 20702±2190 voxels
NET [9]
  Inhibition of cell uptake by blockade of NET (desipramine): 91±1%
NET [10]
  Vmax (NET mediated uptake): 6.0±1.3 pMol/million cells/min
NET [11]
  Cell uptake: 26±2%
